In patent US10202371B2, “Oxazolidin-2-one-pyrimidine derivatives and the use thereof as phosphatidylinositol-3-kinase inhibitors” (Novartis AG, priority 2012, dated 2019) one finds IC50 and PI3Ka/IC50 data, which are given here for two compounds.

Molecules are shown by their SMILES. Like-named read-outs stand apart in the source and are kept apart here.

One assay relates to SCC12B2 cells. Kind of assay: BrdU cell proliferation assay SCC12B2. It counts as cell-based. Particulars: Homo sapiens, BrdU incorporation. The source says:
(§1) The SCL-1 and SCC12B2 are human cutaneous squamous cell carcinoma (SCC) cell lines derived from naturally occurring, poorly differentiated SCCs. The SCL-1 cell line was originally established in the lab of N. Fusenig at the Cancer Research Center in Heidelberg, and its growth characteristics in vitro in comparison to normal keratinocytes were described previously (Neely et al 1991). The SCC12B2 cell line was established as described previously (Rheinwald & Beckett 1981) from the facial skin of a transplant patient who received immunosuppressive therapy for 7 years. The human SCC cell line Detroit562 was obtained from American Tissue Culture Collection (ATCC). Detroit562 is referred to as Head & Neck squamous cell carcinomas (HNSCC) and was derived from a pharyngeal SCC tumor. […]
(§2) Cells of SCC or keratinocyte lines (Detroit562, SCC12B2, SCL1, HaCaT) were used for the proliferation assays when they had reached about 80% to 90% confluency. Cells were then harvested after trypsin-mediated dislodgement from culture flasks, washed in culture medium containing 10% FCS, counted in a hemocytometer and diluted complete culture medium with 5% FCS to obtain a cell density of 5×10^4 cells/ml. […] The cell proliferation was determined on the basis of incorporation of bromodesoxy-uridin (BrdU) into cellular DNA using the chemiluminescent BrdU Cell Proliferation ELISA (Roche article #11 669 915 001). […]

A further assay relates to SCL-1 cells. Kind of assay: BrdU cell proliferation assay SCL-1. Format: cell-based. Particulars: Homo sapiens, BrdU incorporation.
Excerpt: as §1, §2

The subject of the next assay is Detroit562 cells. Kind of assay: BrdU cell proliferation assay Detroit562. Format: cell-based. To be noted: Homo sapiens, Detroit 562, BrdU incorporation.
Excerpt: as §1, §2

In the next assay the target is human PI3Kα (Homo sapiens (Human), UniProt P42336). Description: Biochemical assay PI3Kalpha (KinaseGlo luminescence). To be noted: 1 μM ATP. The source says: Cancer Ther. accepted). […] (L-alpha-phosphatidylinositol (PI), Liver, Bovine) were obtained from Avanti Polar Lipid (Cat. […] (Avanti, Cat. No. 840046X) or L-α-phosphatidylinositol (PI) was obtained from Avanti Polar Lipid (Cat. […] Luminescence is a well established readout to determine ATP concentrations and can thus be used to follow the activity of many kinases regardless of their substrate. The Kinase Glo Luminescent Kinase Assay (Promega, Madison/WI, USA) is a homogeneous HTS method of measuring kinase activity by quantifying the amount of ATP remaining in solution following a kinase reaction. 50 nL of compound dilutions were dispensed onto black 384-well low volume Non Binding Styrene (NBS) plates (Costar Cat. No. […] L-α-phosphatidylinositol (PI), provided as 10 mg/ml solution in methanol, was transferred into a glass tube and dried under nitrogen beam. […] NVP-BGT226 was used as a reference compound and included in all assay plates in the form of 16 dilution points in duplicate. […] All fits were performed with the program XLfit4 (ID Business Solutions, Guildford, UK).
(In general: Kinase-Glo measures the ATP left after a reaction by luminescence.)

human PI3Kα, sequence (P42336 21-1068): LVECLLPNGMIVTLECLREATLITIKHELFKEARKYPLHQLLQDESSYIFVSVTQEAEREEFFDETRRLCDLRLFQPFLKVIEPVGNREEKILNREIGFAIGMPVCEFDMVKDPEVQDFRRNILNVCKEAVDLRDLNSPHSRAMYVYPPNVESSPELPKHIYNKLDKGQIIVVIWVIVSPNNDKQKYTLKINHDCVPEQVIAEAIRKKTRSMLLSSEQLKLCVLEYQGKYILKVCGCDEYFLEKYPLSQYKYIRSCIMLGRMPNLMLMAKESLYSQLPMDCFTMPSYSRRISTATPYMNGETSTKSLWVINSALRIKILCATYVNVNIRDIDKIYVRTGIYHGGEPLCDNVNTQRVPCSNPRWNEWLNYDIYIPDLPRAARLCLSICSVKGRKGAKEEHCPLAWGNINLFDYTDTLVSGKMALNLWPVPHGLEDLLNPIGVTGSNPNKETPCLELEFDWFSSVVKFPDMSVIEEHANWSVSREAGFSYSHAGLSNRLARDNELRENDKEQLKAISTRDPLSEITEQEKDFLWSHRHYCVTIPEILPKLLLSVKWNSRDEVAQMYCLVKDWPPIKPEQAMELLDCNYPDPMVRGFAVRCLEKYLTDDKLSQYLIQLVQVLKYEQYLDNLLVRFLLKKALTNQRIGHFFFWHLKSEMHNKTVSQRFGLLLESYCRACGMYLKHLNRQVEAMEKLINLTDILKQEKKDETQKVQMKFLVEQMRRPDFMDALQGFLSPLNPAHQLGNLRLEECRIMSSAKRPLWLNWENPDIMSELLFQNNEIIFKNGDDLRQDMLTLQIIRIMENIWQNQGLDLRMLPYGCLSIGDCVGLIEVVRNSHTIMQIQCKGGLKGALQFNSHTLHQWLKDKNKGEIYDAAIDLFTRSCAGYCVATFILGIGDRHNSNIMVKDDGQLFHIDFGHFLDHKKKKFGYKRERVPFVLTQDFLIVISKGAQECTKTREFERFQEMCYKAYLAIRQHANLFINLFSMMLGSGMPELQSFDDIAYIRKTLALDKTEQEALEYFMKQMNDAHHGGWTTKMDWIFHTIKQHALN

In general, IC50 refers to the concentration needed to halve the response being measured. Take `C[C@H]1[C@H](c2nccs2)OC(=O)N1c1cc(-c2cnc(N)nc2C(F)(F)F)nc(N2CCOCC2)n1` [Example 1, (4S,5R)-3-(2′-Amino-2-morpholin-4-yl-4′-trifluoromethyl-[4,5′]bipyrimidinyl-6-yl)-4-methyl-5-thiazol-2-yl-oxazolidin-2-one]: the IC50 was found to be 1290 nM with SCC12B2 cells (measurement #1, read-out: anti-proliferative IC50 SCC12B2 measurement #1); 703 nM in the assay on SCC12B2 cells (measurement #2, read-out: anti-proliferative IC50 SCC12B2 measurement #2); 351 nM in the assay on SCL-1 cells (measurement #1, read-out: anti-proliferative IC50 SCL-1 measurement #1); 268 nM in the assay with SCL-1 cells (measurement #2, read-out: anti-proliferative IC50 SCL-1 measurement #2); 598 nM with Detroit562 cells (measurement #1, read-out: anti-proliferative IC50 Detroit562 measurement #1); 440 nM in the assay with Detroit562 cells (measurement #2, read-out: anti-proliferative IC50 Detroit562 measurement #2).
As to `Nc1ncc(-c2cc(N3C(=O)O[C@@H](c4ccccc4)[C@@H]3CO)nc(N3CCOCC3)n2)c(C(F)(F)F)n1` [Example 10], the PI3Ka/IC50 at human PI3Kα was determined as 0.009 umol I-1.
